Source: ChEMBL document CHEMBL1154600, “Knowledge-based characterization of similarity relationships in the human protein-tyrosine phosphatase family for rational inhibitor design” (J Med Chem, 2009)

Assays:
[1] = biological target: T1, Receptor-type tyrosine-protein phosphatase C (Homo sapiens, UniProt P08575); experiment: Inhibition of PTPRC
T1 sequence (P08575 whole entry): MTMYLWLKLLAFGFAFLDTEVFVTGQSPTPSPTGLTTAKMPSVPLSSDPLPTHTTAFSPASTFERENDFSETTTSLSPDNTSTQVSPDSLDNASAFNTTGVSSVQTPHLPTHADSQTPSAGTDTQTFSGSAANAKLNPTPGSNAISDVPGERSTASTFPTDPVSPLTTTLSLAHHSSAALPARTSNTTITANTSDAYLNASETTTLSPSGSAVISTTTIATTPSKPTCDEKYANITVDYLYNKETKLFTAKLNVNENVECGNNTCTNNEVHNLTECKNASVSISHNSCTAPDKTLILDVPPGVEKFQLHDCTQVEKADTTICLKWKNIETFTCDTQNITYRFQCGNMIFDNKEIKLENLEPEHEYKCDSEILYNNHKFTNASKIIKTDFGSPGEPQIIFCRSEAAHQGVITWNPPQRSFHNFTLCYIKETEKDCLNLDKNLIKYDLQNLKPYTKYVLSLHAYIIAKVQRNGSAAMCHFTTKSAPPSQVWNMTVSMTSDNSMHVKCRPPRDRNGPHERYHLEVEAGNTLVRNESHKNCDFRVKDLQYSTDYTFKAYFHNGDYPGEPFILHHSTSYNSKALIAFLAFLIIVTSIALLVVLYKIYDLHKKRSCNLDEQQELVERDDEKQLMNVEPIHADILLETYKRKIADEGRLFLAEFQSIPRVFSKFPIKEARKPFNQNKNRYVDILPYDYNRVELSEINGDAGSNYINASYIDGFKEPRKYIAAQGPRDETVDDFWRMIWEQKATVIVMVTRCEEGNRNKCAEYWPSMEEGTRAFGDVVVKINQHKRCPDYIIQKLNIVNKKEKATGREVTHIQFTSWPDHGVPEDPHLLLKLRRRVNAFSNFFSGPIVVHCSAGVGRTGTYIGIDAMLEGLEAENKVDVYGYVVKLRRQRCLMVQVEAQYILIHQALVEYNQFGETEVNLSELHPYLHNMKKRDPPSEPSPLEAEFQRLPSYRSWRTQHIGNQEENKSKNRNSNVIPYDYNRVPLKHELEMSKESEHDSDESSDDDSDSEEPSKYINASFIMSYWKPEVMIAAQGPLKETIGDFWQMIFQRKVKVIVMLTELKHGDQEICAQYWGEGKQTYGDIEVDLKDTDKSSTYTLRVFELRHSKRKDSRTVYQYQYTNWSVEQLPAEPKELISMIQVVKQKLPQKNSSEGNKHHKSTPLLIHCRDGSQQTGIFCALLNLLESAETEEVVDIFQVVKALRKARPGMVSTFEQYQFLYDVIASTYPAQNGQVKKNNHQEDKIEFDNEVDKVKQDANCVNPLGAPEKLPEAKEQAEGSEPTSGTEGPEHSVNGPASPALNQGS

[2] = biological target: Tyrosine-protein phosphatase non-receptor type 6 (Homo sapiens, UniProt P29350)
Tyrosine-protein phosphatase non-receptor type 6, sequence (P29350 whole entry): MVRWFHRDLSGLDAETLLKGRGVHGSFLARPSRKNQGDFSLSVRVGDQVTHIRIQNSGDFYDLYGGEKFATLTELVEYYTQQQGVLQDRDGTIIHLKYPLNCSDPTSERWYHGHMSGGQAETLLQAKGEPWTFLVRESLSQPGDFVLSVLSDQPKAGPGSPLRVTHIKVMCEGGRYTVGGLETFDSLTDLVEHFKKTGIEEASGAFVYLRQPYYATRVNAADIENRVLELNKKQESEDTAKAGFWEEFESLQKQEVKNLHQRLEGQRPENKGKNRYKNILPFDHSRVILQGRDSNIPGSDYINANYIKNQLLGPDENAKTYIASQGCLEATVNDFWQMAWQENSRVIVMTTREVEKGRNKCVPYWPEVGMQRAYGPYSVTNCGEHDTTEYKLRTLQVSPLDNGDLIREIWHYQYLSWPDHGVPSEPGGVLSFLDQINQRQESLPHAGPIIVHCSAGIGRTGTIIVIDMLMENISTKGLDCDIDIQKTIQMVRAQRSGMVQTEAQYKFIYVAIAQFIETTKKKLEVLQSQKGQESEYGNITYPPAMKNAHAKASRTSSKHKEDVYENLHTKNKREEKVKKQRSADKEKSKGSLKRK

[3] = biological target: Receptor-type tyrosine-protein phosphatase beta (Homo sapiens, UniProt P23467); experiment: Inhibition of PTPRB
[4] = biological target: Receptor-type tyrosine-protein phosphatase epsilon (Homo sapiens, UniProt P23469)
Receptor-type tyrosine-protein phosphatase epsilon, sequence (P23469 whole entry): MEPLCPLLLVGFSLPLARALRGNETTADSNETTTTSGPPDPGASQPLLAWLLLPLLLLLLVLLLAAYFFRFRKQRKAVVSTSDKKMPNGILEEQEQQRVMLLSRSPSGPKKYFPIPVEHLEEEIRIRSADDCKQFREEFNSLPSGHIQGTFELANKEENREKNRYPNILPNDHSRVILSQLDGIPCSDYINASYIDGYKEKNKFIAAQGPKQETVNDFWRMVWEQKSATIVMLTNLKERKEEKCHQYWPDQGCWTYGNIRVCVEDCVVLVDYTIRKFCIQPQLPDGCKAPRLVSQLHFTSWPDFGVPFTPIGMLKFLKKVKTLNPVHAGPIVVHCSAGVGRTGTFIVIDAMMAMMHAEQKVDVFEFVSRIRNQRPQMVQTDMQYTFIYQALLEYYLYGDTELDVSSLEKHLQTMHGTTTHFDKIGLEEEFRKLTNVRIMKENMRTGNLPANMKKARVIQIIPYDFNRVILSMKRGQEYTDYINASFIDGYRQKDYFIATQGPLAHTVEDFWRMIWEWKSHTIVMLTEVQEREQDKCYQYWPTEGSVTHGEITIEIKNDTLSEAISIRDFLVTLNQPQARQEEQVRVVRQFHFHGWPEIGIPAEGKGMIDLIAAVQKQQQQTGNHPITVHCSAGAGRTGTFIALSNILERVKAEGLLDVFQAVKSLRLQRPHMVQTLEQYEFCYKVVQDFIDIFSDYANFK

[5] = biological target: T2, Tyrosine-protein phosphatase non-receptor type 2 (Homo sapiens, UniProt P17706)
T2 sequence (P17706 whole entry): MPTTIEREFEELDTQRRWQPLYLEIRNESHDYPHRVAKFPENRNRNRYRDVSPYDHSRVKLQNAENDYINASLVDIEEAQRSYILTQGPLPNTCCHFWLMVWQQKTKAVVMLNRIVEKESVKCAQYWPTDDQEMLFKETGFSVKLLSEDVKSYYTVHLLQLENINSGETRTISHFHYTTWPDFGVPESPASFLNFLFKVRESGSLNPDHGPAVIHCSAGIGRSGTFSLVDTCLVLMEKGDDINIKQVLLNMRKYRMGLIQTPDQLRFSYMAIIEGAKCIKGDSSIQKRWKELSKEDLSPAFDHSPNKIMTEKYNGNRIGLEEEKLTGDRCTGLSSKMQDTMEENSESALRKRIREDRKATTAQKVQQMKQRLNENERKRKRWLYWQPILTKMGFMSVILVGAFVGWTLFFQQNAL

[6] = biological target: Receptor-type tyrosine-protein phosphatase F (Homo sapiens, UniProt P10586); experiment: Inhibition of PTPRF
Receptor-type tyrosine-protein phosphatase F, sequence (P10586 whole entry): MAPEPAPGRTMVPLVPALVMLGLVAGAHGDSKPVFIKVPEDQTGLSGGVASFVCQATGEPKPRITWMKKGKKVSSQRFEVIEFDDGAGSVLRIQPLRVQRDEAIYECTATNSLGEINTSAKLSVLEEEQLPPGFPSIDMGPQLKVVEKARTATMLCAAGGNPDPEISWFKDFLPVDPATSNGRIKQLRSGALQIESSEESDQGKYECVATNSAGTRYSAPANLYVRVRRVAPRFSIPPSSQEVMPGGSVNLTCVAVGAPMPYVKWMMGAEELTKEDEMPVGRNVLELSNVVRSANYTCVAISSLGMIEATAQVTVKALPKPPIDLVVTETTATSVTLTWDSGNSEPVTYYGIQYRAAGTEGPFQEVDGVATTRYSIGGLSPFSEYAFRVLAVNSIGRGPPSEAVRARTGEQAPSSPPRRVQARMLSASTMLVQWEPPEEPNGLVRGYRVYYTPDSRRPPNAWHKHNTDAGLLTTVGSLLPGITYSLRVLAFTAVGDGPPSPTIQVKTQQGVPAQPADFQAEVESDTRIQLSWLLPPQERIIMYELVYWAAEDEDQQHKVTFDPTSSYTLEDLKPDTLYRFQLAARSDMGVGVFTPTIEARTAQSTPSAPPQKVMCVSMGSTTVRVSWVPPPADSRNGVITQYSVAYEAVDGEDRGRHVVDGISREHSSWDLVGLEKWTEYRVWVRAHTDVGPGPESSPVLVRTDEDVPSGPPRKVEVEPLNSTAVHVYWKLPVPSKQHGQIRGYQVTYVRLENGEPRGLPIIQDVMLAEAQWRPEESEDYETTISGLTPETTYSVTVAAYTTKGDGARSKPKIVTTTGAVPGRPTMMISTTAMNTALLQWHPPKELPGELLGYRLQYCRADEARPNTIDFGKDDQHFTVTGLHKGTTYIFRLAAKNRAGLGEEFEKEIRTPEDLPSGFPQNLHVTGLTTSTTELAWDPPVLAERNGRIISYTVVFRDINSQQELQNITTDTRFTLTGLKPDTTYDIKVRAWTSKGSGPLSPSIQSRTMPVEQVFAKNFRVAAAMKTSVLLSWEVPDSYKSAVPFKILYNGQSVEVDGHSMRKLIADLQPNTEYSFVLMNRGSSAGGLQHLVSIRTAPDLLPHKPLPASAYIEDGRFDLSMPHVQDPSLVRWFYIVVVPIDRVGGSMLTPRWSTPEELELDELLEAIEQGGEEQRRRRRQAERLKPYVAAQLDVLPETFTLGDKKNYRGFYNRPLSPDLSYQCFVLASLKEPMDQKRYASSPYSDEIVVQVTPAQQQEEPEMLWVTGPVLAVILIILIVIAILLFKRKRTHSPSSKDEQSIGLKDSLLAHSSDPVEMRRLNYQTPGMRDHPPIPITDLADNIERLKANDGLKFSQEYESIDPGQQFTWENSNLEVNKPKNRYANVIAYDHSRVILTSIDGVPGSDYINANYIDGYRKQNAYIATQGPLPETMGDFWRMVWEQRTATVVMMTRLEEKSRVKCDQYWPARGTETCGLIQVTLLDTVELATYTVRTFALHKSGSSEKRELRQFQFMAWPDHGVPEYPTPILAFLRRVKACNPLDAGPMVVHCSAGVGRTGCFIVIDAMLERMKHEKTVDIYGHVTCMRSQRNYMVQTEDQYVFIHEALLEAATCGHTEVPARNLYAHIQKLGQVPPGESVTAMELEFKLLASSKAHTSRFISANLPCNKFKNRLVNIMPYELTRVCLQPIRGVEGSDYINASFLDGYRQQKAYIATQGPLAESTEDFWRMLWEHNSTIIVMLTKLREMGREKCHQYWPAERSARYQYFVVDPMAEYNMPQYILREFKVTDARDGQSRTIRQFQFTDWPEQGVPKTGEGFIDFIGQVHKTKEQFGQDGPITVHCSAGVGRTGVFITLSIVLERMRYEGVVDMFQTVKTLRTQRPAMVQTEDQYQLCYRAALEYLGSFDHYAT

[7] = biological target: Receptor-type tyrosine-protein phosphatase alpha (Homo sapiens, UniProt P18433); experiment: Inhibition of PTPRA
Receptor-type tyrosine-protein phosphatase alpha, sequence (P18433 whole entry): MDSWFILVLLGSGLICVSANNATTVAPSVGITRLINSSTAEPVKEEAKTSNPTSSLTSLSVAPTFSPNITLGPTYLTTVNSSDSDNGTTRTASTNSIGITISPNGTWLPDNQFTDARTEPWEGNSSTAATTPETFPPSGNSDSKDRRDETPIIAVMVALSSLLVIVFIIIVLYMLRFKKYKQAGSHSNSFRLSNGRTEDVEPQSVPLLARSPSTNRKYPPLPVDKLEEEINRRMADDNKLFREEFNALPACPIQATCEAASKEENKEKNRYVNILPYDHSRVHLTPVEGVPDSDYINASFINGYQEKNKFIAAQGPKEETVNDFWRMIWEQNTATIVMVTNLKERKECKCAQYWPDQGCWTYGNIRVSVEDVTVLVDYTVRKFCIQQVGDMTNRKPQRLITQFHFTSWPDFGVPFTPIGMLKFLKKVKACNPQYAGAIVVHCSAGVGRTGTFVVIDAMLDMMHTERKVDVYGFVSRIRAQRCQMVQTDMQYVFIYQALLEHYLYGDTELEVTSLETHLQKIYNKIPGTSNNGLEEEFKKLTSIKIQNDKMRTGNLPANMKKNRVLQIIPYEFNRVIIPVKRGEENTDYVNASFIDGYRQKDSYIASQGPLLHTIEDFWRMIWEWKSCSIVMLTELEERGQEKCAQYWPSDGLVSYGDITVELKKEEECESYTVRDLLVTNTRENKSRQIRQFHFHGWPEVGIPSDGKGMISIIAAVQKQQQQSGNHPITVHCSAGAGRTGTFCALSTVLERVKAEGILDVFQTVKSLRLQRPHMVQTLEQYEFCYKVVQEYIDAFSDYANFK

[8] = biological target: Tyrosine-protein phosphatase non-receptor type 2 (Homo sapiens) (UniProt P17706); experiment: Inhibition of PTPN2

| Structure (SMILES) | Ki [1] | Ki [2] | Ki [3] | Ki [4] | Ki [5] | Ki [6] | Ki [7] | Ki [8] |
| --- | --- | --- | --- | --- | --- | --- | --- | --- |
| O=C(O)C(=O)Nc1sc2c(c1C(=O)O)CCCC2 | 41 µM | 100 µM | 19 µM | – | – | – | – | – |
| O=C(O)C(=O)Nc1ccccc1C(=O)O | – | 510 µM | 33 µM | 130 µM | – | – | – | – |
| O=C(O)C(=O)Nc1sc2c(c1C(=O)O)CCNC2 | 59 µM | > 2000 µM | 560 µM | 1100 µM | 0.29 µM | – | – | – |
| O=C(O)COc1c(C(=O)O)sc(-c2ccccc2)c1Br | – | – | – | – | – | > 500 µM | – | – |
| CC1(C)CC(Nc2cccc(-c3sc(C(=O)O)c(OCC(=O)O)c3Br)c2)CC(C)(C)C1 | – | – | – | – | – | > 1000 µM | – | – |
| O=C(O)C(=O)Nc1ccsc1C(=O)O | 260 µM | – | – | 360 µM | 58 µM | – | > 2000 µM | – |
| O=C(O)C(=O)Nc1ccc(I)cc1C(=O)O | 49 µM | 80 µM | 17 µM | 33 µM | 14 µM | – | – | – |
| O=C(O)C(=O)Nc1ccc2cc[nH]c2c1C(=O)O | 20 µM | 28 µM | 3.6 µM | 33 µM | 8 µM | 450 µM | 180 µM | – |
| O=C(O)C(=O)Nc1cc2[nH]ccc2cc1C(=O)O | 56 µM | 16 µM | 6 µM | 66 µM | 14 µM | 550 µM | 800 µM | – |
| O=C(O)C(=O)Nc1sccc1C(=O)O | 210 µM | – | – | 740 µM | 62 µM | – | – | – |
| O=C(O)C(=O)Nc1cc2ccccc2cc1C(O)O | 37 µM | 94 µM | 14 µM | 45 µM | 9.9 µM | 68 µM | 190 µM | – |
| O=C(O)C(=O)Nc1sc2c(c1C(=O)O)CCO[C@H]2COC1=NS(=O)(=O)c2ccccc21 | 489 µM | 289 µM | 21 µM | > 500 µM | 0.6 µM | 176 µM | > 500 µM | 1.1 µM |
| O=C(O)COc1c(C(=O)O)sc2c1sc1ccccc12 | > 1250 µM | – | – | – | 9.2 µM | 1100 µM | – | 4.1 µM |
